Results on seven compounds are retold here after US20110236874A1, “METHOD FOR FORMATION OF RENAL TUBULES” (priority 2008, published 2011).

Experiment [1] deals with Human proximal tubules formed on 2D solid surfaces. The experiment in a line: Transport assays with fluorescent substrates in tubules formed on 2D solid surfaces. The class given is cell-based. To be noted: 20 h incubation, lucifer yellow 80 μM, rhodamine 123 10 μM, 5,6-carboxyfluorescein 5 μM, BODIPY FL verapamil 5 μM. On the procedure:
Transport assays: Tubules formed 1-2 weeks after seeding were cultivated in phenol red-free medium supplemented with 80 μM of lucifer yellow (Sigma Aldrich Chemical Corp, Singapore), 10 μM of rhodamine 123 (Invitrogen, Singapore), 5 μM of 5,6-carboxydichlorofluorescein diacetate (5,6-carboxyfluorescein) (Invitrogen) or 5 μM of BODIPY FL verapmil (Invitrogen). Tubules were fixed after 20 h of incubation, and subsequently stained with 4′,6′-diamidino-2′-phenylindole (DAPI).
FIG. 11: Organic anion transport. Human proximal tubules formed on 2D solid surfaces were incubated for 20 h with the organic anions lucifer yellow (A, B; green), rhodamine 123 (C; red), 5,6-carboxyfluorescein (D; green) and BODIPY FL verapamil (F; green). Tubules are fixed before imaging, and the cell nuclei are counterstained with DAPI (blue). […] The arrowhead points to a region that is enlarged in the inset. The DAPI-stained nuclei of the outer cell layer are on the right in the inset. […] Scale bars: 100 μm.

In experiment [2] the test system is primary rabbit renal proximal tubule cells. As to conditions: added to confluent rabbit cell cultures for at least 72 hours; TGF-β1 10 ng/ml, EGF 1 nM, RA 0.1 μM; cited from earlier work.
Experiment [3] deals with primary human renal proximal tubule cells (HPTCs). The experiment in a line: TGF-β1 treatment of confluent HPTC monolayers in complete HPTC medium. It is filed as cell-based. Here is the method: Cell culture: Different batches of HPTCs were obtained from ScienCell Research Laboratories (Carlsbad, Calif., USA). Cells were cultivated in basal epithelial cell medium supplemented with 2% fetal bovine serum (FBS) and 1% epithelial cell growth supplement (ScienCell Research Laboratories). In some experiments, TGF-β1 (R&D Systems, Minneapolis, Minn., USA) was added at a concentration of 10 ng/ml after monolayer formation.
FIG. 17: Growth factor expression and effects of TGF-β1. (A) The expression levels of TGF-β1, α-SMA, LIF, FGF2, KGF and HGF are monitored over a period of 4 weeks. […] Panels B-D show the cells treated for 3 days with 10 ng/ml TGF-β1 after monolayer formation. […] Scale bar: 500
A fourth experimental series was performed with our HPTC medium containing all supplements including FBS. HPTCs were grown to confluency and then treated with TGF-β1 (10 ng/ml; same concentration as used for the rabbit cells). After three days massive cords and aggregates of cells with an elongated, myofibroblastic morphology had formed in 6/6 wells. Although in the complete HPTC medium with FBS, cords and cell aggregates also form without the addition of extra TGF-β1, such structures formed more consistently after addition of TGF-β1. […]

For experiment [4] the test system is unchanged. Nature of the experiment: TGF-β1 treatment of confluent HPTC patches in Humes basal medium. It is filed as cell-based. To be noted: 10 ng/ml TGF-β1 on confluent patches in Humes basal medium. On the procedure:
The Humes et al. method used primary rabbit proximal tubule cells. The references indicate three factors are necessary in the growth medium for 2D tubulogenesis: (i) transforming growth factor (TGF)-β1; (ii) epidermal growth factor (EGF); and all-trans retinoic acid (RA). The method involves cultivation of primary rabbit renal proximal tubule cells in the following medium: Dulbecco's modified Eagle's:Ham's F-12 media (1:1, v/v) containing L-glutamine, penicillin, streptomycin, 50 nM hydrocortisone, 5 μg/ml of insulin, and 5 μg/ml of transferrin, referred to herein as Humes basal medium.
In a second set of experiments cells were again cultivated in Humes basal medium. In accordance with the previous results, massive cell death occurred although some cells survived and formed some confluent patches after 2 weeks. By this time cell growth was very slow and overall confluency could not be achieved. However, the confluent patches were treated with 10 ng/ml TGF-β1 in accordance with the Humes et al. method.

“Also recorded” adds a separate entry of the source.

Take “5,6-carboxydichlorofluorescein diacetate [5,6-carboxyfluorescein]”: the “localisation of the fluorescent substrate after incubation (transport across tubular epithelium)” value (“localisation” below) in experiment [1] was “enriched in the tubular interior; also recorded: became enriched in the tubular lumen”.
In the case of `CC1=C(/C=C/C(C)=C/C=C/C(C)=C/C(=O)O)C(C)(C)CCC1` [RA, all-trans retinoic acid], in experiment [2], the “structures formed from confluent monolayer” value (shortened to “structures formed”) is recorded as “no dramatic effects on the monolayer”.
In the case of BODIPY FL verapamil, the “localisation” value is “enriched in the cytoplasm of tubular and monolayer cells” in experiment [1]; “became enriched within the cells” in experiment [1] (listed as BOPIPY FL verapamil).
Turning to “EGF: epidermal growth factor (NSDSECPLSHDGYCLHDGVCMYIEALDKYACNCVVGYIGERCQYRDLKWWELR; UniProt P01133 971-1023, looked up)”, the “structures formed” value in experiment [2] is “no dramatic effects on the monolayer”.
For “TGF-β1: transforming growth factor β1 (R&D Systems), 10 ng/ml”, the “wells with massive cords and aggregates of cells of myofibroblastic morphology” value in experiment [3] (10 ng/ml TGF-β1, after three days, complete HPTC medium with FBS) is reported as 6/6. Also, the “effect on the monolayer” value in experiment [3] (10 ng/ml TGF-β1 for 3 days after monolayer formation) was “induces rearrangements leading to the formation of condensed stripes of cells and areas devoid of cells; also recorded: rearrangement of the monolayer into a condensed stripe of cells and to the formation of cell aggregates”. In addition, the “effect on the monolayer, cord and tubule formation” value in experiment [4] is “no obvious effect on the monolayer and no cord and tubule formation was observed”. Besides, in experiment [2], the “structures formed” value is listed as “formation of solid aggregates of adherent cells (no lumen)”.
For the compound lucifer yellow, the “localisation” value in experiment [1] is reported as “the lumen is strongly labeled; also recorded: became enriched in the tubular lumen”.
Turning to rhodamine 123, the “localisation” value was “became enriched in the tubular lumen” in experiment [1] and “enriched in the tubular lumen” in experiment [1] (listed as Rhodamine 123).
